Results reported in patent US10307413B2, “Tetrahydro- and dihydro-isoquinoline PRMT5 inhibitors and uses thereof” (Epizyme, Inc., priority 2013, dated 2019).

Tests used:
PRMT5/MEP50 = PRMT5/MEP50 (Homo sapiens (Human), UniProt O14744); test: PRMT5 Biochemical Assay (PRMT5/MEP50 enzyme assay on peptide substrate, 3H-SAM Flashplate); conditions: PRMT5 biochemical assay
Outline: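 Radiometric methylation of a biotin-tagged H4(1-15) peptide by human PRMT5/MEP50 from baculovirus/Sf9, with ³H-SAM incorporation read on streptavidin Flashplates. Buffer: Bicine pH 7.6, TCEP, BSG, Tween20; compound preincubated 30 min at 25 °C; stopped with 600 µM final unlabeled SAM. DMSO and SAH controls; IC50 from fitted % inhibition.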

[1] = test system: symmetric di-methyl arginine in Z-138 cells; test: Z-138 Methylation Assay (In Cell Western for symmetric di-methyl arginine and DNA content); type: cell-based; conditions: Homo sapiens, In Cell Western methylation, read-out: ICW EC50
Outline: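 Z-138 cells (50,000 cells/mL) treated with compound 96 h at 37 °C, then fixed and stained for symmetric di-methyl arginine (800 nm) with DRAQ5 DNA counterstain (700 nm) on Licor Odyssey.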

Z-138 cell line = test: Z-138 Proliferation Assay (Cell Titer Glo, 5 days); type: cell-based; conditions: Homo sapiens, 120 h; Z-138 cells, 5 days, Cell Titer Glo; read-out: Proliferation EC50
Outline: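 Z-138 cells exposed 5 days at 37 °C, 5% CO2 to nine-point 3-fold dilutions (final top 20 μM, 0.2% DMSO), in triplicate. Viability read as ATP by CellTiter-Glo luminescence; IC50 from 4-parameter fit of normalized dose-response curves.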

Sequence of PRMT5/MEP50 (O14744 other isoform, or with tags, fused parts or gaps): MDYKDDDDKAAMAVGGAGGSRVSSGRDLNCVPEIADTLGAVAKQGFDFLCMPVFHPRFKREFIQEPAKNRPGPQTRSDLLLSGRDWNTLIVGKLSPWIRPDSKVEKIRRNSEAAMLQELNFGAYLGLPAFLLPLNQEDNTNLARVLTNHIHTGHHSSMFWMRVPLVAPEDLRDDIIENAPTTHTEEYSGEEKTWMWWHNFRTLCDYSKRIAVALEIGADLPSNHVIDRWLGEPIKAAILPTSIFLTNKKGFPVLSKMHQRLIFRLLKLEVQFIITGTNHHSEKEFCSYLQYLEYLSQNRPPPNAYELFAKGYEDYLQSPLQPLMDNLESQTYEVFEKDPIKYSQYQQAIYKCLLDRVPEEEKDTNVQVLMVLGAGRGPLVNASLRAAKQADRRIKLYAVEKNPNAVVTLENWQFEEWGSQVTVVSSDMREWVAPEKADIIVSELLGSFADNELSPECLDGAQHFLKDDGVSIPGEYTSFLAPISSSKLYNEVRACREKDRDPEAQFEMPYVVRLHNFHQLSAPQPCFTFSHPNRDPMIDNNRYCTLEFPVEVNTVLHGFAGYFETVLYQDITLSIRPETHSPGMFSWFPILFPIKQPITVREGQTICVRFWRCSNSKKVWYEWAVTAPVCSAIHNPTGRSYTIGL
Sequence of PRMT5/MEP50 (Q9BQA1 other isoform, or with tags, fused parts or gaps partner): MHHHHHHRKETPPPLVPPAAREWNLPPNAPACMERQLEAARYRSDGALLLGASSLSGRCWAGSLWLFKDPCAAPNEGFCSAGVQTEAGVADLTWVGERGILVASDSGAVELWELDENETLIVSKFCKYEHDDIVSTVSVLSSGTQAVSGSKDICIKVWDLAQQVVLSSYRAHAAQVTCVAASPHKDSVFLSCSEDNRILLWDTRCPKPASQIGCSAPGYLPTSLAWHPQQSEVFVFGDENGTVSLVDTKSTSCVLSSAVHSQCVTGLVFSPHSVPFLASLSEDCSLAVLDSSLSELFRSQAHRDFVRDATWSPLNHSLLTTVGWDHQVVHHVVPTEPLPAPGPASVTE

SMILES	IC50 (PRMT5/MEP50)	EC50 [1]	EC50 (Z-138 cell line)
O=C(NC[C@H](O)CN1CCc2ccccc2C1)c1ccnc(OCCNCC(F)(F)F)c1 [Compound 421]	< 100 nM	< 100 nM	1000 to 10000 nM
O=C(NC[C@H](O)CN1CCc2ccccc2C1)c1ncnc(NC2COC2)c1F [Compound 422]	< 100 nM	< 100 nM	1000 to 10000 nM
CC(C)N1CC(Nc2cc(C(=O)NC[C@H](O)CN3CCc4ccccc4C3)ncn2)C1 [Compound 423]	< 100 nM	101 to 1000 nM	10000 to 50000 nM
CC(C)(C)C(=O)N1CC(Nc2cc(C(=O)NC[C@H](O)CN3CCc4ccccc4C3)ncn2)C1 [Compound 424]	< 100 nM	< 100 nM	101 to 1000 nM
O=C(NC[C@H](O)CN1CCc2ccccc2C1)c1cc(NC2CN(C(=O)C3CC3)C2)ncn1 [Compound 425]	< 100 nM	< 100 nM	< 100 nM
Nc1cc(C(=O)NC[C@H](O)CN2CCc3ccccc3C2)ncn1 [Compound 429]	101 to 1000 nM	101 to 1000 nM	10000 to 50000 nM
CC1(C)CC(Nc2cc(C(=O)NC[C@H](O)CN3CCc4ccccc4C3)ncn2)CC(C)(C)N1 [Compound 430]	< 100 nM	101 to 1000 nM	1000 to 10000 nM
O=C(NC[C@H](O)CN1CCc2ccccc2C1)c1cc(Nc2cc[nH]n2)ncn1 [Compound 431]	< 100 nM	< 100 nM	1000 to 10000 nM
Cc1cc(Nc2cc(C(=O)NC[C@H](O)CN3CCc4ccccc4C3)ncn2)n[nH]1 [Compound 432]	< 100 nM	< 100 nM	1000 to 10000 nM
Cc1cc(Nc2cc(C(=O)NC[C@H](O)CN3CCc4ccccc4C3)ccn2)n[nH]1 [Compound 433]	< 100 nM	< 100 nM	1000 to 10000 nM
O=C(NC[C@H](O)CN1CCc2ccccc2C1)c1cc(O)nc(NC2CCC2)c1 [Compound 434]	< 100 nM	< 100 nM	101 to 1000 nM
O=C(NC[C@H](O)CN1CCc2ccccc2C1)c1cc(NC2COC2)ccn1 [Compound 435]	< 100 nM	< 100 nM	101 to 1000 nM
O=C(NC[C@H](O)CN1CCc2ccccc2C1)c1cccc(NC2COC2)n1 [Compound 436]	< 100 nM	< 100 nM	1000 to 10000 nM
O=C(NC[C@H](O)CN1CCc2ccccc2C1)c1ncnc(NC2COC2)c1Cl [Compound 437]	< 100 nM	< 100 nM	1000 to 10000 nM
CC(C)CN1CC(Nc2cc(C(=O)NC[C@H](O)CN3CCc4ccccc4C3)ncn2)C1 [Compound 438]	< 100 nM	101 to 1000 nM	1000 to 10000 nM
O=C(NC[C@H](O)CN1CCc2ccccc2C1)c1cc(OC2CNC2)ncn1 [Compound 439]	< 100 nM	101 to 1000 nM	10000 to 50000 nM
CC(=O)N[C@H]1C[C@H](Nc2cc(C(=O)NC[C@H](O)CN3CCc4ccccc4C3)ncn2)C1 [Compound 440]	< 100 nM	< 100 nM	101 to 1000 nM
CC(=O)N1CC(Nc2cc(C(=O)NC[C@H](O)CN3CCc4ccccc4C3)nc(N3CCCCC3)n2)C1 [Compound 441]	< 100 nM	< 100 nM	< 100 nM
CC(=O)N1CC(Nc2cc(C(=O)NC[C@H](O)CN3CCc4ccccc4C3)nc(N3CCN(C)CC3)n2)C1 [Compound 442]	< 100 nM	< 100 nM	101 to 1000 nM
CC(=O)N1CC(Nc2cc(C(=O)NC[C@H](O)CN3CCc4ccccc4C3)nc(N3CCOCC3)n2)C1 [Compound 443]	< 100 nM	< 100 nM	< 100 nM
CC(=O)N1CC(Nc2cncc(C(=O)NC[C@H](O)CN3CCc4ccccc4C3)c2)C1 [Compound 444]	< 100 nM	< 100 nM	101 to 1000 nM
C[C@H](N1CC(Nc2cc(C(=O)NC[C@H](O)CN3CCc4ccccc4C3)ncn2)C1)C(F)(F)F [Compound 445]	< 100 nM	< 100 nM	1000 to 10000 nM
C[C@@H](N1CC(Nc2cc(C(=O)NC[C@H](O)CN3CCc4ccccc4C3)ncn2)C1)C(F)(F)F [Compound 446]	< 100 nM	< 100 nM	1000 to 10000 nM
O=C(NC[C@H](O)CN1CCc2ccccc2C1)c1cc(NC2CNC2)nc(N2CCOCC2)n1 [Compound 447]	< 100 nM	< 100 nM	1000 to 10000 nM
CN(c1cc(C(=O)NC[C@H](O)CN2CCc3ccccc3C2)ncn1)C1COC1 [Compound 448]	< 100 nM	> 1000 nM	> 20000 nM
